The test system of this assay is MDA-MB-468 breast. Description: growth of human tumour cells (NCI), 48 h.

Several values for one entry are separate records, joined by “and”; a condition that tells them apart may be missing. Identical values can stand only once.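 Dose response: 5 concentrations. Exposure: 48 h. Format: 96-well plates. Endpoint: linear interpolation; highest concentration if not reached. The concentration for 50% growth inhibition is given as GI50. TGI: concentration producing complete growth inhibition.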 A value given as a limit tells only on which side of the number the result lay.

For the compound `O=c1c2ccc3cccc4c(=O)c5ccc6cccc1c6c5-c2c34`, the GI50 was more than 50000 nM and the TGI is more than 50000 nM.
As to `O=C(Nc1cccc(-n2cc(-c3ccncc3)c(-c3ccc(Cl)c(O)c3)n2)c1)Nc1ccc(Cl)c(C(F)(F)F)c1`, the GI50 is 547 nM and the TGI is 2230 nM.
Consider `CN1CCc2c(c3ccccc3c3ccccc23)C1`, for which the GI50 is 2220 nM and the TGI stood at 9940 nM.
For `CCn1cc(C(=O)O)c(=O)c2cc(F)c(N3CCN(S(=O)(=O)c4ccc(Cl)cc4)CC3)cc21`, in that order: 2100 nM and 6240 nM.
For `O=C(N/N=C/c1ccccc1O)c1ccccc1O`, in that order: 427 nM and 5560 nM.
For `CCOc1ccccc1NC1=C(Cl)C(=O)c2nc(C)ccc2C1=O`, in that order: 1450 nM and 2880 nM.
`CN1CCN(CCCOc2ccc3nc(Nc4cc(Cl)cc(Cl)c4)ccc3c2)CC1`: the GI50 was 1600 nM and the TGI is 3250 nM.
For the compound `CCOc1nc(-c2ccccc2)cc2c(O)c(C(=O)N/N=C/c3ccc(O)cc3O)[nH]c(=O)c12`, the GI50 is 2490 nM and the TGI worked out at 56700 nM.
For `CCOC(=O)N1C/C(=C/c2ccc(F)cc2)C(=O)/C(=C/c2ccc(F)cc2)C1` the same measures were 1260 nM and 2900 nM.
For `CC(=O)O[C@H]1CCC2(C)C(=CCC3C2CCC2(C)/C(=N/OC(=O)c4ccc(N(CCCl)CCCl)cc4)CCC32)C1` (stereo not given in full), in that order: 31100 nM and more than 100000 nM.
On to `CN(C)CCCOc1ccc(OCCCN(C)C)c2c1C(=O)c1ccccc1C2=O`, for which the GI50 is 580 nM and the TGI stood at 2950 nM.
For `Fc1cnc(NC2CC2)nc1-c1cnc2ccc(N3CCOCC3)cn12` the same measures were 182 nM and 429 nM.
As to `O=C1C=CC(=O)N1C1CCCCCCCCCCC1`, the GI50 is 2210 nM and the TGI was determined as 6800 nM.
For `CC(=O)Nc1cccc(Nc2nc(N[C@@H](C)c3ccccc3)c3ccccc3n2)c1`, in that order: 229 nM and 818 nM.
For `CCCCN1CCN(c2ccc3nc(-c4ccc5nc(-c6ccc(OC)c(OC)c6)[nH]c5c4)[nH]c3c2)CC1`, in that order: 370 nM and 1330 nM.
Take `O=C(Nc1ccc(CN2CCOCC2)cc1)c1ccc(-c2cc(Cl)ccc2Cl)o1`: the GI50 is 4520 nM and the TGI was 25800 nM.
As for `CCCS(=O)(=O)Nc1ccc(F)c(C(=O)c2c[nH]c3ncc(Cl)cc23)c1F`, the GI50 is 7640 nM and the TGI came to 49500 nM.
For `O=C1c2ccccc2-c2nnc(-c3ccc(Br)cc3)cc21` the same measures were more than 100000 nM and more than 100000 nM.
`Nc1cc(-c2c[nH]c3ccc(Br)cc23)nc2cc(-c3c[nH]c4ccc(Br)cc34)nn12`: the GI50 is 1590 nM and the TGI was found to be 3160 nM.
In the case of `CCc1ccc(CNCC(O)c2ccccc2)cc1` (stereo not given), the GI50 was 13200 nM and the TGI was 28200 nM.
As for `CCN1CCN(c2cc(C)nc(N(CCNc3ccnc4cc(Cl)ccc34)Cc3ccc4c(c3)OCO4)n2)CC1`, the GI50 is 534 nM and the TGI turned out to be 2140 nM.
For `COc1cc2ncn(-c3cc(O[C@H](C)c4ccccc4Cl)c(C(N)=O)s3)c2cc1OC`, in that order: 7.89 nM and 4000 nM.
For `Nc1nc2c(c3ncccc13)C(c1cccc(Br)c1)Cc1ncccc1-2` (stereo not given) the same measures were 349 nM and 7660 nM.
For `O=C1Nc2cc(Cl)ccc2/C1=C\c1c(-c2ccc(F)cc2)nc2ccccn12` the same measures were 448 nM and 2250 nM.
For `O=c1c2cc(F)ccc2sc2c(N3CCNCC3)nc3ccccc3c12`, the GI50 is 1580 nM and the TGI is 3190 nM.
On to `O=NN(CCCl)C(=O)NCCCl`, for which the TGI was 146000 nM and > 500000 nM.
Take `O=C(/C=C/c1ccc(Cl)cc1)/C=C/c1cc2ccccc2[nH]c1=O`: the GI50 was 2350 nM and the TGI stood at 6010 nM.
Turning to `COc1ccc(C(=O)c2cc(OC)c3c(c2)OCO3)cc1O`, the GI50 was 366 nM and the TGI came to 3350 nM.

The record behind these values is PubChem BioAssay (NCI).
